Laboratory results as given in PubChem BioAssay AID1963865 (Molecular Pharmacology Branch, DTP, NCI, 2024).

Tested on: KRAS PDC multicell spheroid viability
Assay: Anticancer human tumor 825966-067-R-J1-PDC patient-derived colon carcinoma cell line growth inhibition [KRAS2]
Conditions: for IC50: curve of first compound; for viability, T/C: stronger effect = lower value; active means viability on the fitted dose curve at most 10% of control; inactive means the rest
Excerpt: Multicellular complex tumor spheroid response to RAS pathway inhibitors in combination with a targeted agents in patient-derived cell lines with oncogenic KRAS variants from multiple cancer types
A high-throughput screen of multi-cell type tumor spheroids was designed to identify active combinations of targeted small molecules and KRAS pathway inhibitors. Complex spheroids include a stromal component modeled by human endothelial cells (HUVEC) and fibroblasts modeled by human mesenchymal stem cells (MSCs). The concentration ranges selected for each drug and investigational agent were based upon clinically achievable concentrations if the clinical Cmax of the agent was known.
Compounds. The drugs and investigational agents: BI-3406 (NSC825286), BAY-293 (NSC824723), batoprotafib (TNO155; NSC825523), sotorasib (AMG 510; NSC818433), MRTX1257 (NSC819558), elimusertib (BAY 1895344; NSC800525), molibresib (GSK525762; NSC774829), temuterkib (LY3214996; NSC803410), venetoclax (NSC766270), alisertib (NSC759677), olaparib (NSC753686), talazoparib (NSC767125), erdafitinib (NSC781556), ipatasertib (NSC767898), cabozantinib (NSC761068), nintedanib (NSC756659), abemaciclib (NSC768073), docetaxel (NSC628503), trametinib (NSC758246), and sapanisertib (NSC764658) were obtained from the National Cancer Institute (NCI) Developmental Therapeutics Program Chemical Repository. The FDA-approved anticancer drug set is available from the Developmental Therapeutics Program. […] The stock solutions were prepared in dimethyl sulfoxide (DMSO, Sigma-Aldrich, St. Louis, MO, cat. D2650) at 800-fold the tested concentration and stored at -70 degrees C prior to their use. All drugs and investigational agents were tested over a range starting from a high concentration at or near the clinical Cmax and decreasing in half-log increments. If the clinical Cmax for an agent had not been determined, the highest concentration tested was 10 microM.
Cell Culture. All cells were maintained in an incubator at 37 degrees C and 5% CO2 with 95% humidity. The PDC lines were cultured according to standard operating procedures established by the NCI PDMR (https://pdmr.cancer.gov/sops/default.htm). Briefly, all PDCs were thawed and cultured in Matrigel-coated flasks prepared with a working solution of 1X Ham's F-12 nutrient mix, without supplementation (Invitrogen, Waltham, MA, cat. 11765054), 100 U/mL penicillin-streptomycin (Invitrogen, cat. 15140122), and 2.5% Matrigel (Corning Inc., Corning, NY, cat. 354248) for the first three passages. All PDCs were cultured in complete DMEM/F-12 media containing advanced DMEM/F-12 (Invitrogen, cat. 12634028), 4.9% defined fetal bovine serum, heat inactivated (HyClone Laboratories Inc., Logan, UT, cat. SH30070.03HI), 389 ng/mL hydrocortisone (Sigma-Aldrich, cat. H4001), 9.7 ng/mL human EGF recombinant protein (Invitrogen, cat. PHG0313), 23.4 microg/mL adenine (Sigma-Aldrich, cat. A2786), 97.3 U/mL penicillin-streptomycin (Invitrogen, cat. 15140122), 1.9 mM L-glutamine (Invitrogen, cat. 25030081), and 9.7 microM Y-27632 dihydrochloride (Tocris Bioscience, Bristol, United Kingdom, cat. 1254). The PDCs were cultured in complete DMEM/F12 media without 9.7 microM Y-27632 dihydrochloride for at least two passages prior to the screen. The established cell line HOP-62 was cultured in RPMI 1640 medium, HEPES (Invitrogen, cat. 22400105) with 10% defined fetal bovine serum (HyClone Laboratories Inc., cat. SH30070.03) and 2 mM L-glutamine (Invitrogen, cat. 25030081). The pooled donor HUVEC were cultured in endothelial cell growth medium 2 (PromoCell, Heidelberg, Germany, cat. C-22011) and the hMSC were cultured in mesenchymal stem cell growth medium 2 (PromoCell, cat. C-28009). For all experiments, HUVEC and hMSC were used at passages </=5, while the malignant cell lines were used at passages </=15. […]

[1] = second compound 0.1 µM, first compound 0.0316 µM
[2] = second compound 0.1 µM, first compound 0.1 µM
[3] = second compound 0.316 µM, first compound 0.0316 µM
[4] = second compound 0.316 µM, first compound 0.1 µM
[5] = second compound 1 µM, first compound 0.0316 µM
[6] = second compound 1 µM, first compound 0.1 µM
[7] = second compound 3.16 µM, first compound 0.0316 µM
[8] = second compound 3.16 µM, first compound 0.1 µM
[9] = second compound 10 µM, first compound 0.0316 µM
[10] = second compound 10 µM, first compound 0.1 µM
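Further: spheroids exposed to compounds for 7 days.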

Cn1ncnc1[C@H]1c2n[nH]c(=O)c3cc(F)cc(c23)N[C@@H]1c1ccc(F)cc1 + COc1cc2nc(C)nc(NC(C)c3cc(N)cc(C(F)(F)F)c3)c2cc1OC1CCOC1
inactive: viability, T/C (second compound 0.1 µM, first compound 0.000316 µM) 92.2% | viability, T/C (second compound 0.1 µM, first compound 0.001 µM) 89.3% | viability, T/C (second compound 0.1 µM, first compound 0.00316 µM) 90.6% | viability, T/C (second compound 0.1 µM, first compound 0.01 µM) 76.7% | viability, T/C [1] 83.9% | viability, T/C [2] 70.9% | viability, T/C (second compound 0.316 µM, first compound 0.000316 µM) 86.3% | viability, T/C (second compound 0.316 µM, first compound 0.001 µM) 94.4% | viability, T/C (second compound 0.316 µM, first compound 0.00316 µM) 82.4% | viability, T/C (second compound 0.316 µM, first compound 0.01 µM) 101% | viability, T/C [3] 65.3% | viability, T/C [4] 64.4% | viability, T/C (second compound 1 µM, first compound 0.000316 µM) 86.3% | viability, T/C (second compound 1 µM, first compound 0.001 µM) 99.4% | viability, T/C (second compound 1 µM, first compound 0.00316 µM) 107% | viability, T/C (second compound 1 µM, first compound 0.01 µM) 79.2% | viability, T/C [5] 84.2% | viability, T/C [6] 92.1% | viability, T/C (second compound 3.16 µM, first compound 0.000316 µM) 116% | viability, T/C (second compound 3.16 µM, first compound 0.001 µM) 103% | viability, T/C (second compound 3.16 µM, first compound 0.00316 µM) 114% | viability, T/C (second compound 3.16 µM, first compound 0.01 µM) 94.7% | viability, T/C [7] 105% | viability, T/C [8] 89.3% | viability, T/C (second compound 10 µM, first compound 0.000316 µM) 11.3% | viability, T/C (second compound 10 µM, first compound 0.001 µM) 10.4% | viability, T/C (second compound 10 µM, first compound 0.00316 µM) 17.1% | viability, T/C (second compound 10 µM, first compound 0.01 µM) 21.1% | viability, T/C [9] 11.8% | viability, T/C [10] 7.86%
< 0.316 nM: IC50 (second compound 10 µM)
> 100 nM: IC50 (second compound 0.1 µM) | IC50 (second compound 0.316 µM) | IC50 (second compound 1 µM) | IC50 (second compound 3.16 µM)

CC(C)NCC(C(=O)N1CCN(c2ncnc3c2C(C)CC3O)CC1)c1ccc(Cl)cc1 (stereo not given) + CNCc1ccccc1-c1csc(C(C)Nc2nc(C)nc3cc(OC)c(OC)cc23)c1
32.2 nM: IC50 (second compound 3.16 µM)
< 31.6 nM: IC50 (second compound 10 µM)
active: viability, T/C (second compound 0.1 µM, first compound 10 µM) 7.87% | viability, T/C (second compound 0.316 µM, first compound 10 µM) 6.85% | viability, T/C (second compound 1 µM, first compound 3.16 µM) 14.8% | viability, T/C (second compound 1 µM, first compound 10 µM) 3.31% | viability, T/C (second compound 3.16 µM, first compound 0.316 µM) 1.24% | viability, T/C (second compound 3.16 µM, first compound 1 µM) 0.74% | viability, T/C (second compound 3.16 µM, first compound 3.16 µM) 0.68% | viability, T/C (second compound 3.16 µM, first compound 10 µM) 1.98% | viability, T/C [9] 1.91% | viability, T/C [10] 1.5% | viability, T/C (second compound 10 µM, first compound 0.316 µM) 0.93% | viability, T/C (second compound 10 µM, first compound 1 µM) 0.3% | viability, T/C (second compound 10 µM, first compound 3.16 µM) 0.36% | viability, T/C (second compound 10 µM, first compound 10 µM) 0.91%
1780 nM: IC50 (second compound 0.316 µM)
1880 nM: IC50 (second compound 0.1 µM)
787 nM: IC50 (second compound 1 µM)
inactive: viability, T/C [1] 84.8% | viability, T/C [2] 84.4% | viability, T/C (second compound 0.1 µM, first compound 0.316 µM) 89.6% | viability, T/C (second compound 0.1 µM, first compound 1 µM) 85.3% | viability, T/C (second compound 0.1 µM, first compound 3.16 µM) 20.8% | viability, T/C [3] 79% | viability, T/C [4] 110% | viability, T/C (second compound 0.316 µM, first compound 0.316 µM) 119% | viability, T/C (second compound 0.316 µM, first compound 1 µM) 69.9% | viability, T/C (second compound 0.316 µM, first compound 3.16 µM) 29.2% | viability, T/C [5] 81.6% | viability, T/C [6] 84.8% | viability, T/C (second compound 1 µM, first compound 0.316 µM) 97.9% | viability, T/C (second compound 1 µM, first compound 1 µM) 40% | viability, T/C [7] 50.6% | viability, T/C [8] 21.1%
